Experimental data from patent publication US20260240795A1 (KYOTO P[…] UNIVERSITY CORPORATION, priority 2023, published 2026).

System: AMPK
Assay: AMPK activating activity in HK-2 cells treated with tunicamycin, Western blot
Format: cell-based, human
Conditions: tunicamycin 5 μg/ml with or without sephin1 1 μM, 24 hours, compared to untreated cells
Protocol: The HK-2 cell line is a proximal tubular cell line derived from normal kidney immortalized by transduction with human papilloma virus 16 (HPV-16) E6/E7 genes.
HK-2 cells were seeded in a six well plate at a cell density of 7×10^4 cells per well 24 hours prior to the start of the study (T−24). […] 24 hours later (at T24) cells were recovered and protein was analyzed by Western blot analysis.

tunicamycin
AMPK levels (AMPK/GAPDH): reduced
